Test results as given in PubChem BioAssay AID2060490 (Molecular Pharmacology Branch, DTP, NCI, 2025).
Blank lines part the entries; values can stand above or below the compound they belong to.

Test system: 885512-296-R-J2-PDC complex spheroid viability
Test: Anticancer human tumor 885512-296-R-J2-PDC patient-derived breast carcinoma cell line growth inhibition [GQUAD]
Settings: for IC50: curve of first compound; for viability, T/C: stronger effect = lower value
Text: DNA G-quadruplex Stabilizer Agents in Combinations in Complex Spheroids
A high-throughput screen of multi-cell type tumor spheroids was designed to identify active combinations of DNA G-quadruplex stabilizer agents and targeted small molecules. Complex spheroids include a stromal component modeled by human endothelial cells (HUVEC) and fibroblasts modeled by human mesenchymal stem cells (MSCs). The concentration ranges selected for each drug and investigational agent were based upon clinically achievable concentrations if the clinical Cmax of the agent was known.
Compounds. The drugs and investigational agents: pidnarulex (CX-5461; NSC782164), APTO-253 (NSC789042), BRACO-19 (NSC847499), peposertib (NSC802822), ceralasertib (NSC780249), elimusertib (NSC800525), camonsertib (NSC841442), AZD-1390 (NSC803789), olaparib (NSC753686), talazoparib (NSC767125), ART-558 (NSC835418), sotorasib (NSC818433), MRTX-1133 (NSC836407), SN-38 (NSC673596), topotecan (NSC609699), etoposide (NSC141540), doxorubicin (NSC123127), gemcitabine (NSC613327), 5-fluorouracil (NSC19893), paclitaxel (NSC125973), vemurafenib (NSC761431), panobinostat (NSC761190), R-306465 (JNJ-16241199; NSC773264), adavosertib (NSC754352), TP-3654 (NSC805149), carboplatin (NSC241240), KSQ-4279 (NSC840948), and staurosporine (NSC755774) were obtained from the National Cancer Institute (NCI) Developmental Therapeutics Program Chemical Repository (34). The FDA-approved anticancer drug set is available from the NCI Developmental Therapeutics Program. […] The stock solutions were prepared in dimethyl sulfoxide (DMSO, Sigma-Aldrich, St. Louis, MO, cat. D2650) at 800-fold the tested concentration and stored at -70 degrees C prior to their use. All drugs and investigational agents were tested over a range starting from a high concentration at or near the clinical Cmax and decreasing in half-log increments. If the clinical Cmax for an agent had not been determined, the highest concentration tested was 10 microM.
2.3 Cell Culture. All cells were maintained in an incubator at 37 degrees C and 5% CO2 with 95% humidity. The PDC lines were cultured according to standard operating procedures established by the NCI PDMR. All PDCs were thawed and cultured in Matrigel-coated flasks prepared with a working solution of 1X Ham's F-12 nutrient mix, without supplementation (Invitrogen, cat. 11765054), 100 U/mL penicillin-streptomycin (Invitrogen, cat. 15140122), and 2.5% Matrigel (Corning Inc., cat. 354248) for the first three passages. The 857933-349-R-J2-PDC line was cultured in 6C/Colon 1B media, which includes advanced DMEM/F-12 (Thermo Fisher Scientific, cat. 12634028), 10 mM HEPES (Thermo Fisher Scientific, cat. 15630080), 1X GlutaMAX supplement (Thermo Fisher Scientific, cat. 35050061), 0.1 mg/mL primocin (InvivoGen, cat. ant-pm-2), 10% defined fetal bovine serum, heat inactivated (HyClone Laboratories Inc., cat. SH30070.03HI), 50% L-WRN conditioned media (ATCC, cat. CRL-3276), 1.25 mM N-Acetyl-L-cysteine (Sigma-Aldrich, cat. A9165), 10 mM nicotinamide (Sigma-Aldrich, cat. N0636), 1X B-27 supplement (Thermo Fisher Scientific, cat. 17504044), 1X N-2 supplement (Thermo Fisher Scientific, cat. 17502048), 10 microM Y-27632 dihydrochloride (Tocris Bioscience, cat. 1254), and 50 ng/mL human EGF recombinant protein (Thermo Fisher Scientific, cat. PHG0311). The 485176-168-R4-J1-PDC line was cultured in Panc media, which includes all 6C/Colon 1B media components plus 100 ng/mL human FGF-10 (Thermo Fisher Scientific, cat. 100-26), 500 nM SB-431542 (Selleckchem, cat. S1067), and gastrin (Tocris, cat. 3006).
[…]

[1] = second compound 0.0316 µM, first compound 0.0316 µM
[2] = second compound 0.0316 µM, first compound 0.1 µM
[3] = second compound 0.0316 µM, first compound 0.316 µM
[4] = second compound 0.0316 µM, first compound 1 µM
[5] = second compound 0.0316 µM, first compound 3.16 µM
[6] = second compound 0.0316 µM, first compound 10 µM
[7] = second compound 0.1 µM, first compound 0.0316 µM
[8] = second compound 0.1 µM, first compound 0.1 µM
[9] = second compound 0.1 µM, first compound 0.316 µM
[10] = second compound 0.1 µM, first compound 1 µM
[11] = second compound 0.1 µM, first compound 3.16 µM
[12] = second compound 0.1 µM, first compound 10 µM
[13] = second compound 0.316 µM, first compound 0.0316 µM
[14] = second compound 0.316 µM, first compound 0.1 µM
[15] = second compound 0.316 µM, first compound 0.316 µM
[16] = second compound 0.316 µM, first compound 1 µM
[17] = second compound 0.316 µM, first compound 3.16 µM
[18] = second compound 0.316 µM, first compound 10 µM
[19] = second compound 1 µM, first compound 0.0316 µM
[20] = second compound 1 µM, first compound 0.1 µM
[21] = second compound 1 µM, first compound 0.316 µM
[22] = second compound 1 µM, first compound 1 µM
[23] = second compound 1 µM, first compound 3.16 µM
[24] = second compound 1 µM, first compound 10 µM
[25] = second compound 3.16 µM, first compound 0.0316 µM
[26] = second compound 3.16 µM, first compound 0.1 µM
[27] = second compound 3.16 µM, first compound 0.316 µM
[28] = second compound 3.16 µM, first compound 1 µM
[29] = second compound 3.16 µM, first compound 3.16 µM
[30] = second compound 3.16 µM, first compound 10 µM
[31] = second compound 10 µM, first compound 0.0316 µM
[32] = second compound 10 µM, first compound 0.1 µM
[33] = second compound 10 µM, first compound 0.316 µM
[34] = second compound 10 µM, first compound 1 µM
[35] = second compound 10 µM, first compound 3.16 µM
[36] = second compound 10 µM, first compound 10 µM
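Note: spheroids exposed to the compounds for one week.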
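Throughout, for viability, T/C: percent of tumor spheroid viability relative to DMSO vehicle control wells.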

- IC50 (second compound 0.0316 µM): 64.4 nM
- IC50 (second compound 0.1 µM): < 31.6 nM
- IC50 (second compound 0.316 µM): < 31.6 nM
- IC50 (second compound 1 µM): < 31.6 nM
- IC50 (second compound 3.16 µM): < 31.6 nM
- IC50 (second compound 10 µM): < 31.6 nM
Compound: O=C(NO)c1cnc(N2CCN(S(=O)(=O)c3ccc4ccccc4c3)CC2)nc1 + Cc1cnc(CNC(=O)c2c(=O)c3ccc(N4CCCN(C)CC4)nc3n3c2sc2ccccc23)cn1
- viability, T/C [1]: 65.9%
- viability, T/C [2]: 38.7%
- viability, T/C [3]: 23.6%
- viability, T/C [4]: 5.79%
- viability, T/C [5]: 0.51%
- viability, T/C [6]: 0.13%
- viability, T/C [7]: 42.8%
- viability, T/C [8]: 37.7%
- viability, T/C [9]: 27.8%
- viability, T/C [10]: 6.31%
- viability, T/C [11]: 0.49%
- viability, T/C [12]: 0.43%
- viability, T/C [13]: 22.8%
- viability, T/C [14]: 19.5%
- viability, T/C [15]: 21.7%
- viability, T/C [16]: 7.7%
- viability, T/C [17]: 0.43%
- viability, T/C [18]: 0.1%
- viability, T/C [19]: 19.3%
- viability, T/C [20]: 14.9%
- viability, T/C [21]: 13.7%
- viability, T/C [22]: 0.1%
- viability, T/C [23]: 0.07%
- viability, T/C [24]: 0.11%
- viability, T/C [25]: 10%
- viability, T/C [26]: 6.5%
- viability, T/C [27]: 0.13%
- viability, T/C [28]: 0.1%
- viability, T/C [29]: 0.09%
- viability, T/C [30]: 0.12%
- viability, T/C [31]: 0.07%
- viability, T/C [32]: 0.15%
- viability, T/C [33]: 0.15%
- viability, T/C [34]: 0.12%
- viability, T/C [35]: 0.15%
- viability, T/C [36]: 0.17%

Compound: COc1ncnc(C2CC2)c1-c1ncc2cnn(Cc3ccc(-c4nc(C(F)(F)F)cn4C(C)C)cc3)c2n1 + CN(C)c1ccc(Nc2c3ccc(NC(=O)CCN4CCCC4)cc3nc3cc(NC(=O)CCN4CCCC4)ccc23)cc1
- IC50 (second compound 0.0316 µM): > 10000 nM
- IC50 (second compound 0.1 µM): > 10000 nM
- IC50 (second compound 0.316 µM): > 10000 nM
- IC50 (second compound 1 µM): > 10000 nM
- IC50 (second compound 3.16 µM): > 10000 nM
- IC50 (second compound 10 µM): < 31.6 nM
- viability, T/C [1]: 107%
- viability, T/C [2]: 102%
- viability, T/C [3]: 93.3%
- viability, T/C [4]: 104%
- viability, T/C [5]: 100%
- viability, T/C [6]: 92.3%
- viability, T/C [7]: 103%
- viability, T/C [8]: 103%
- viability, T/C [9]: 97.3%
- viability, T/C [10]: 93.6%
- viability, T/C [11]: 92.5%
- viability, T/C [12]: 81.4%
- viability, T/C [13]: 105%
- viability, T/C [14]: 108%
- viability, T/C [15]: 103%
- viability, T/C [16]: 103%
- viability, T/C [17]: 104%
- viability, T/C [18]: 85.8%
- viability, T/C [19]: 95%
- viability, T/C [20]: 97.2%
- viability, T/C [21]: 103%
- viability, T/C [22]: 91%
- viability, T/C [23]: 101%
- viability, T/C [24]: 87.4%
- viability, T/C [25]: 99.4%
- viability, T/C [26]: 107%
- viability, T/C [27]: 106%
- viability, T/C [28]: 83.9%
- viability, T/C [29]: 81.3%
- viability, T/C [30]: 50.3%
- viability, T/C [31]: 28.5%
- viability, T/C [32]: 18.7%
- viability, T/C [33]: 16.4%
- viability, T/C [34]: 15.3%
- viability, T/C [35]: 11.9%
- viability, T/C [36]: 5.91%

- IC50 (second compound 0.0316 µM): 2560 nM
- IC50 (second compound 0.1 µM): 551 nM
- IC50 (second compound 0.316 µM): < 31.6 nM
- IC50 (second compound 1 µM): < 31.6 nM
- IC50 (second compound 3.16 µM): < 31.6 nM
- IC50 (second compound 10 µM): < 31.6 nM
Compound: O=C(c1cc(Cc2n[nH]c(=O)c3ccccc23)ccc1F)N1CCN(C(=O)C2CC2)CC1 + Cc1cnc(CNC(=O)c2c(=O)c3ccc(N4CCCN(C)CC4)nc3n3c2sc2ccccc23)cn1
- viability, T/C [1]: 78.3%
- viability, T/C [2]: 69.4%
- viability, T/C [3]: 95.4%
- viability, T/C [4]: 83.6%
- viability, T/C [5]: 42.9%
- viability, T/C [6]: 23.8%
- viability, T/C [7]: 57.4%
- viability, T/C [8]: 55.5%
- viability, T/C [9]: 53.2%
- viability, T/C [10]: 46.8%
- viability, T/C [11]: 35.4%
- viability, T/C [12]: 22.5%
- viability, T/C [13]: 28.4%
- viability, T/C [14]: 26.7%
- viability, T/C [15]: 25.7%
- viability, T/C [16]: 17.6%
- viability, T/C [17]: 10.7%
- viability, T/C [18]: 15.5%
- viability, T/C [19]: 23.4%
- viability, T/C [20]: 22.8%
- viability, T/C [21]: 25.7%
- viability, T/C [22]: 21%
- viability, T/C [23]: 18%
- viability, T/C [24]: 18.4%
- viability, T/C [25]: 25%
- viability, T/C [26]: 26.6%
- viability, T/C [27]: 27%
- viability, T/C [28]: 24.5%
- viability, T/C [29]: 23%
- viability, T/C [30]: 8.85%
- viability, T/C [31]: 0.44%
- viability, T/C [32]: 0.21%
- viability, T/C [33]: 0.23%
- viability, T/C [34]: 0.19%
- viability, T/C [35]: 0.23%
- viability, T/C [36]: 0.19%
